biological target: b-Raf (V600E) (Homo sapiens (Human), UniProt P15056, V600E); conditions: read-out: b-Raf IC-50; AlphaScreen, 60 min pre-incubation, 3 hours reaction
Sequence (P15056 whole entry V600E): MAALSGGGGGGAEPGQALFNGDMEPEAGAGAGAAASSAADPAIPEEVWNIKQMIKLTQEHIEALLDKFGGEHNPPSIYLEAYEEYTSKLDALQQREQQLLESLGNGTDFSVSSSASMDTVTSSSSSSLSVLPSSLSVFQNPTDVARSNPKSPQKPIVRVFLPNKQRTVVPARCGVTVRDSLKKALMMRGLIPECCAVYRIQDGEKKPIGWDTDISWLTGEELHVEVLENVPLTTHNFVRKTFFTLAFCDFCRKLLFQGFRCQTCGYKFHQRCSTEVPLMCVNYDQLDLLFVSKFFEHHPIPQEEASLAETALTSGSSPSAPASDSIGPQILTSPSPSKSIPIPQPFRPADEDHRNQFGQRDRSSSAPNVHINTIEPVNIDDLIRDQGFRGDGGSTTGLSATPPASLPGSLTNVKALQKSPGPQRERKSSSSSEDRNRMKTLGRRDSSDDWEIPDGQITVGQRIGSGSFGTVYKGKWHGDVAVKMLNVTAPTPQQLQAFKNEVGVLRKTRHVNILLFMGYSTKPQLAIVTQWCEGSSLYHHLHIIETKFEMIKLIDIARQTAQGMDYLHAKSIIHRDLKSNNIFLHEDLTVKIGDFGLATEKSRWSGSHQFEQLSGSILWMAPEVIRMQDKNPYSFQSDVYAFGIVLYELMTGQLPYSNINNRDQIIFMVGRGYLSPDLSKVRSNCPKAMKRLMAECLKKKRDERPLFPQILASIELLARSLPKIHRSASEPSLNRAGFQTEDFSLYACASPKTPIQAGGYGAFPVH

Row | SMILES | IC50
1 | Cc1ncc(NC(=O)c2cccc(C(F)F)c2)cc1-c1cc(N2CCOCC2)n(C)c(=O)c1 [Example 506, 3-(difluoromethyl)-N-(1′,2-dimethyl-6′-morpholino-2′-oxo-1′,2′-dihydro-[3,4′-bipyridin]-5-yl)benzamide] | 1.8 nM
2 | Cc1ncc(NC(=O)c2ccnc(C(C)(C)C)c2)cc1-c1cc(N2CCOCC2)n(C)c(=O)c1 [Example 507, 2-(tert-butyl)-N-(1′,2-dimethyl-6′-morpholino-2′-oxo-1′,2′-dihydro-[3,4′-bipyridin]-5-yl)isonicotinamide] | 20.6 nM
3 | Cc1ncc(NC(=O)c2ccnc(C3CC3)c2)cc1-c1cc(N2CCOCC2)n(C)c(=O)c1 [Example 511, 2-cyclopropyl-N-(1′,2-dimethyl-6′-morpholino-2′-oxo-1′,2′-dihydro-[3,4′-bipyridin]-5-yl)isonicotinamide] | 6.4 nM
4 | Cn1c(N2CCOCC2)cc(-c2cc(NC(=O)c3ccnc(C(C)(F)F)c3)cnc2Cl)cc1=O [Example 513, N-(2-chloro-1′-methyl-6′-morpholino-2′-oxo-1′,2′-dihydro-[3,4′-bipyridin]-5-yl)-2-(1,1-difluoroethyl)isonicotinamide] | 2.4 nM
5 | Cc1ccc(C(=O)Nc2cccc(C(F)F)c2)cc1-c1cc(N2CCOCC2)n(C)c(=O)c1 [Example 514, N-(3-(difluoromethyl)phenyl)-4-methyl-3-(1-methyl-6-morpholino-2-oxo-1,2-dihydropyridin-4-yl)benzamide] | 1.1 nM
6 | Cc1ccc(C(=O)Nc2cccc(C(C)(C)C#N)c2)cc1-c1cc(N2CCOCC2)n(C)c(=O)c1 [Example 515, N-(3-(2-cyanopropan-2-yl)phenyl)-4-methyl-3-(1-methyl-6-morpholino-2-oxo-1,2-dihydropyridin-4-yl)benzamide] | 4.5 nM
7 | Cc1ccc(C(=O)Nc2cccc(C(C)(C)O)c2)cc1-c1cc(N2CCOCC2)n(C)c(=O)c1 [Example 516, N-(3-(2-hydroxypropan-2-yl)phenyl)-4-methyl-3-(1-methyl-6-morpholino-2-oxo-1,2-dihydropyridin-4-yl)benzamide] | 17.7 nM
8 | CCn1c(N2CCOCC2)cc(-c2cc(NC(=O)c3ccnc(C(C)(F)F)c3)ccc2C)cc1=O [Example 519, 2-(1,1-difluoroethyl)-N-(3-(1-ethyl-6-morpholino-2-oxo-1,2-dihydropyridin-4-yl)-4-methylphenyl)isonicotinamide] | 0.6 nM
9 | CCn1c(N2CCOCC2)cc(-c2cc(NC(=O)c3ccnc(C(F)(F)CC)c3)ccc2C)cc1=O [Example 520, 2-(1,1-difluoropropyl)-N-(3-(1-ethyl-6-morpholino-2-oxo-1,2-dihydropyridin-4-yl)-4-methylphenyl)isonicotinamide] | 2.1 nM
10 | CCn1c(N2CCOCC2)cc(-c2cc(NC(=O)c3ccnc(C(C)C)c3)ccc2C)cc1=O [Example 522, N-(3-(1-ethyl-6-morpholino-2-oxo-1,2-dihydropyridin-4-yl)-4-methylphenyl)-2-isopropylisonicotinamide] | 2.5 nM
11 | Cc1ccc(NC(=O)c2ccnc(C(C)(F)F)c2)cc1-c1cc(N2CCOC[C@@H]2C)n(C)c(=O)c1 [Example 525, (S)-2-(1,1-difluoroethyl)-N-(4-methyl-3-(1-methyl-6-(3-methylmorpholino)-2-oxo-1,2-dihydropyridin-4-yl)phenyl)isonicotinamide] | 3.8 nM
12 | Cc1ccc(NC(=O)c2ccnc(C(C)(F)F)c2)cc1-c1cc(N2C3CCC2COC3)n(C)c(=O)c1 [Example 527, N-(3-(6-(3-oxa-8-azabicyclo[3.2.1]octan-8-yl)-1-methyl-2-oxo-1,2-dihydropyridin-4-yl)-4-methylphenyl)-2-(1,1-difluoroethyl)isonicotinamide] | 5.6 nM
13 | Cn1c(N2C3CCC2COC3)cc(-c2cc(NC(=O)c3ccnc(C(C)(F)F)c3)cnc2Cl)cc1=O [Example 528, N-(6′-(3-oxa-8-azabicyclo[3.2.1]octan-8-yl)-2-chloro-1′-methyl-2′-oxo-1′,2′-dihydro-[3,4′-bipyridin]-5-yl)-2-(1,1-difluoroethyl)isonicotinamide] | 15.2 nM
14 | Cc1ncc(NC(=O)c2ccnc(C(C)(F)F)c2)cc1-c1cc(N2CCO[C@H](CO)C2)n(C)c(=O)c1 [Example 530, (S)-2-(1,1-difluoroethyl)-N-(6′-(2-(hydroxymethyl)morpholino)-1′,2-dimethyl-Z-oxo-1′,2′-dihydro-[3,4′-bipyridin]-5-yl)isonicotinamide] | 51.3 nM
15 | Cc1ncc(NC(=O)c2ccnc(C(C)(C)C#N)c2)cc1-c1cncc(N2CCOCC2)n1 [Example 532, 2-(2-cyanopropan-2-yl)-N-(6-methyl-5-(6-morpholinopyrazin-2-yl)pyridin-3-yl)isonicotinamide] | 7.7 nM
16 | Cc1ncc(NC(=O)c2ccnc(C(C)(F)F)c2)cc1-c1cncc(N2CCOCC2)n1 [Example 533, 2-(1,1-difluoroethyl)-N-(6-methyl-5-(6-morpholinopyrazin-2-yl)pyridin-3-yl)isonicotinamide] | 4.4 nM
17 | Cc1ncc(NC(=O)c2ccnc(C(C)(C)F)c2)cc1-c1cncc(N2CCOCC2)n1 [Example 534, 2-(2-fluoropropan-2-yl)-N-(6-methyl-5-(6-morpholinopyrazin-2-yl)pyridin-3-yl)isonicotinamide] | 6 nM
18 | Cc1ncc(NC(=O)c2ccnc(C(F)F)c2)cc1-c1cncc(N2CCOCC2)n1 [Example 535, 2-(difluoromethyl)-N-(6-methyl-5-(6-morpholinopyrazin-2-yl)pyridin-3-yl)isonicotinamide] | 45.5 nM
19 | CCOc1ncc(-c2cc(NC(=O)c3cc(CN(C)C)cc(C(F)(F)F)c3)cnc2C)nc1N1CCOCC1 [Example 545, 3-((dimethylamino)methyl)-N-(5-(5-ethoxy-6-morpholinopyrazin-2-yl)-6-methylpyridin-3-yl)-5-(trifluoromethyl)benzamide] | 16.5 nM

Continued, values first:

Row | IC50 | SMILES
20 | 21 nM | Cc1ncc(NC(=O)c2ccnc(S(C)(=O)=O)c2)cc1-c1cc(N2CCOCC2)n(C)c(=O)c1 [Example 504, N-(1′,2-dimethyl-6′-morpholino-2′-oxo-1′,2′-dihydro-[3,4′-bipyridin]-5-yl)-2-(methylsulfonyl)isonicotinamide]
21 | 5.8 nM | Cc1ncc(NC(=O)c2ccnc(C(C)C)c2)cc1-c1cc(N2CCOCC2)n(C)c(=O)c1 [Example 505, N-(1′,2-dimethyl-6′-morpholino-2′-oxo-1′,2′-dihydro-[3,4′-bipyridin]-5-yl)-2-isopropylisonicotinamide]
22 | 7.8 nM | Cc1ncc(NC(=O)c2ccnc(C(F)F)c2)cc1-c1cc(N2CCOCC2)n(C)c(=O)c1 [Example 508, 2-(difluoromethyl)-N-(1′,2-dimethyl-6′-morpholino-2′-oxo-1′,2′-dihydro-[3,4′-bipyridin]-5-yl)isonicotinamide]
23 | 17.3 nM | Cc1ncc(NC(=O)c2cccc(S(C)(=O)=O)c2)cc1-c1cc(N2CCOCC2)n(C)c(=O)c1 [Example 509, N-(1′,2-dimethyl-6′-morpholino-2′-oxo-1′,2′-dihydro-[3,4′-bipyridin]-5-yl)-3-(methylsulfonyl)benzamide]
24 | 7.5 nM | Cc1ncc(NC(=O)c2ccnc(C(C)(F)F)c2)cc1-c1cc(N2CCOCC2)n(C)c(=O)c1 [Example 510, 2-(1,1-difluoroethyl)-N-(1′,2-dimethyl-6′-morpholino-2′-oxo-1′,2′-dihydro-[3,4′-bipyridin]-5-yl)isonicotinamide]
25 | 59.8 nM | Cc1ncc(NC(=O)c2cccc(C(C)(C)S(C)(=O)=O)c2)cc1-c1cc(N2CCOCC2)n(C)c(=O)c1 [Example 512, N-(1′,2-dimethyl-6′-morpholino-2′-oxo-1′,2′-dihydro-[3,4′-bipyridin]-5-yl)-3-(2-(methylsulfonyl)propan-2-yl)benzamide]
26 | 1.2 nM | Cc1ccc(C(=O)Nc2cccc(C(F)(F)F)c2)cc1-c1cc(N2CCOCC2)n(C)c(=O)c1 [Example 517, 4-methyl-3-(1-methyl-6-morpholino-2-oxo-1,2-dihydropyridin-4-yl)-N-(3-(trifluoromethyl)phenyl)benzamide]
27 | 79 nM | Cc1ccc(C(=O)Nc2ccccc2)cc1-c1cc(N2CCOCC2)n(C)c(=O)c1 [Example 518, 4-methyl-3-(1-methyl-6-morpholino-2-oxo-1,2-dihydropyridin-4-yl)-N-phenylbenzamide]
28 | 3.7 nM | Cc1ccc(NC(=O)c2ccnc(C(C)(F)F)c2)cc1-c1cc(N2CCOC[C@H]2C)n(C)c(=O)c1 [Example 523, (R)-2-(1,1-difluoroethyl)-N-(4-methyl-3-(1-methyl-6-(3-methylmorpholino)-2-oxo-1,2-dihydropyridin-4-yl)phenyl)isonicotinamide]
29 | 41.2 nM | Cc1ncc(NC(=O)c2ccnc(C(C)(F)F)c2)cc1-c1cc(N2CCOC[C@H]2C)n(C)c(=O)c1 [Example 524, (R)-2-(1,1-difluoroethyl)-N-(1′,2-dimethyl-6′-(3-methylmorpholino)-2′-oxo-1′,2′-dihydro-[3,4′-bipyridin]-5-yl)isonicotinamide]
30 | 76.1 nM | Cc1ncc(NC(=O)c2ccnc(C(C)(F)F)c2)cc1-c1cc(N2CCO[C@@H](CO)C2)n(C)c(=O)c1 [Example 529, (R)-2-(1,1-difluoroethyl)-N-(6′-(2-(hydroxymethyl)morpholino)-1′,2-dimethyl-2′-oxo-1′,2′-dihydro-[3,4′-bipyridin]-5-yl)isonicotinamide]
31 | 5 nM | Cc1ccc(NC(=O)c2ccnc(C(C)(C)C#N)c2)cc1-c1cncc(N2CCOCC2)n1 [Example 531, 2-(2-cyanopropan-2-yl)-N-(4-methyl-3-(6-morpholinopyrazin-2-yl)phenyl)isonicotinamide]
32 | 4.4 nM | CCC(F)(F)c1cc(C(=O)Nc2cnc(C)c(-c3cncc(N4CCOCC4)n3)c2)ccn1 [Example 537, 2-(1,1-difluoropropyl)-N-(6-methyl-5-(6-morpholinopyrazin-2-yl)pyridin-3-yl)isonicotinamide]
33 | 1.2 nM | CCOc1ncc(-c2cc(NC(=O)c3cccc(C(F)(F)F)c3)ccc2C)nc1N1CCOCC1 [Example 538, N-(3-(5-ethoxy-6-morpholinopyrazin-2-yl)-4-methylphenyl)-3-(trifluoromethyl)benzamide]
34 | 2.8 nM | CCOc1ncc(-c2cc(NC(=O)c3cccc(C(F)(F)F)c3)cnc2C)nc1N1CCOCC1 [Example 539, N-(5-(5-ethoxy-6-morpholinopyrazin-2-yl)-6-methylpyridin-3-yl)-3-(trifluoromethyl)benzamide]

Source: patent publication US9694016B2 (Novartis AG, priority 2013, dated 2017)
